Assay results reported in US20240417398A1, “TETRAHYDRONAPTHYRIDINE AND RELATED ANALOGS FOR INHIBITING YAP/TAZ-TEAD” (SpringWorks Therapeutics, Inc., priority 2023, published 2024).

Tested on: YAP/TAZ-TEAD transcription
Assay: Reporter gene assay for measuring the inhibition of YAP/TAZ-TEAD transcription (TEAD-responsive element luciferase reporter, Hek293T cells)
Type: cell-based
Details: Homo sapiens, HEK-293T, 24 h, Hek293T cells transfected with TEAD-responsive element luciferase reporter, 24 hours incubation
Protocol: Hek293T cells were cultured in DMEM supplemented with 10% fetal bovine serum, Sodium pyruvate, Sodium bicarbonate, L-glutamine. The cells were harvested and transiently transfected with TEAD-responsive element luciferase reporter. Transfected cells were plated in 384-well plate containing pre-diluted compounds. After 24 hours incubation at 37° C./5% CO2, assay plates were cooled to room temperature and levelled to an equal volume per well, prior to the addition of 25 uL luciferase substrate SteadyLite (Perkin Elmer)/well. The plate was shaken for 10 min at 600 rpm, centrifuged for 1 min at 500 rpm and measured with an Envision reader (PerkinElmer). The amount of relative light units produced by the TEAD reporter was used to calculate the percentage of inhibition.
The percent of reporter inhibition was calculated in the presence of a positive control inhibitor (100% inhibition) versus a condition with the presence of the vehicle basal activity of the reporter (0% inhibition). The ability of a test compound to inhibit this activity was determined as: Percentage inhibition=[1-((RLU determined in the presence of vehicle−RLU determined for sample with test compound present) divided by (RLU determined in the presence of vehicle−RLU determined for sample with positive control inhibitor))]*100.
The activities of example compounds tested are depicted in Table 3. The activity ranges A, B and C refer to IC50 values in the reporter gene assay as follows: “A”: IC50<1 μM; “B”: 1 μM≤IC50 10 μM and “C”: IC50>10 μM; NT=not tested.

| Structure (SMILES) | IC50 |
| --- | --- |
| C=CC(=O)NCC1Cc2c(Oc3cccnc3)cccc2N(c2ccc(C(F)(F)F)cc2)C1 (stereo not drawn) [Cpd. No. 3, N-((5-(pyridin-3-yloxy)-1-(4-(trifluoromethyl)phenyl)-1,2,3,4-tetrahydroquinolin-3-yl)methyl)acrylamide] | < 1 µM |
| CCC(=O)NCC1Cc2c(OCc3cc(=O)[nH]c(=O)[nH]3)cccc2N(c2ccc(C(F)(F)F)cc2)C1 (stereo not drawn) [Cpd. No. 5, N-((5-((2,6-dioxo-1,2,3,6-tetrahydropyrimidin-4-yl)methoxy)-1-(4-(trifluoromethyl)phenyl)-1,2,3,4-tetrahydroquinolin-3-yl)methyl)propionamide] | < 1 µM |
| CS(=O)(=O)NCC1Cc2c(OCc3cc(=O)[nH]c(=O)[nH]3)cccc2N(c2ccc(C(F)(F)F)cc2)C1 (stereo not drawn) [Cpd. No. 8, N-((5-((2,6-dioxo-1,2,3,6-tetrahydropyrimidin-4-yl)methoxy)-1-(4-(trifluoromethyl)phenyl)-1,2,3,4-tetrahydroquinolin-3-yl)methyl)methanesulfonamide] | 1 to 10 µM |
| CS(=O)(=O)NCC1Cc2c(OCc3cc[nH]c(=O)c3)cccc2N(c2ccc(C(F)(F)F)cc2)C1 (stereo not drawn) [Cpd. No. 9, N-((5-((2-oxo-1,2-dihydropyridin-4-yl)methoxy)-1-(4-(trifluoromethyl)phenyl)-1,2,3,4-tetrahydroquinolin-3-yl)methyl)methanesulfonamide] | < 1 µM |
| O=C(O)CC1Cc2ncccc2N(c2ccc(C(F)(F)F)cc2)C1 (stereo not drawn) [Cpd. No. 13, 2-(1-(4-(trifluoromethyl)phenyl)-1,2,3,4-tetrahydro-1,5-naphthyridin-3-yl)acetic acid] | 1 to 10 µM |
| CC(=O)NCC1Cc2c(ccc[n+]2[O-])N(c2ccc(C(F)(F)F)cc2)C1 (stereo not drawn) [Cpd. No. 16, 7-(acetamidomethyl)-5-(4-(trifluoromethyl)phenyl)-5,6,7,8-tetrahydro-1,5-naphthyridine 1-oxide] | 1 to 10 µM |
| CCC(=O)NCC1Cc2ncccc2N(c2ccc(C(F)(F)F)cc2)C1 (stereo not drawn) [Cpd. No. 17, N-((1-(4-(trifluoromethyl)phenyl)-1,2,3,4-tetrahydro-1,5-naphthyridin-3-yl)methyl)propionamide] | < 1 µM |
| O=C(NCC1Cc2ncccc2N(c2ccc(C(F)(F)F)cc2)C1)C1CC1 (stereo not drawn) [Cpd. No. 18, N-((1-(4-(trifluoromethyl)phenyl)-1,2,3,4-tetrahydro-1,5-naphthyridin-3-yl)methyl)cyclopropanecarboxamide] | < 1 µM |
| CNS(=O)(=O)NCC1Cc2ncccc2N(c2ccc(C(F)(F)F)cc2)C1 (stereo not drawn) [Cpd. No. 19, N-(methylsulfamoyl)-1-[1-[4-(trifluoromethyl)phenyl]-3,4-dihydro-2H-1,5-naphthyridin-3-yl]methanamine] | < 1 µM |
| O=C(O)/C=C/C1Cc2ncccc2N(c2ccc(C(F)(F)F)cc2)C1 (stereo not drawn) [Cpd. No. 20, (E)-3-(1-(4-(trifluoromethyl)phenyl)-1,2,3,4-tetrahydro-1,5-naphthyridin-3-yl)acrylic acid] | < 1 µM |
| C=CC(=O)NCC1Cc2nc(OC)ccc2N(c2ccc(C(F)(F)F)cc2)C1 (stereo not drawn) [Cpd. No. 21, N-((6-methoxy-1-(4-(trifluoromethyl)phenyl)-1,2,3,4-tetrahydro-1,5-naphthyridin-3-yl)methyl)acrylamide] | < 1 µM |
| COc1ccc2c(n1)CC(CNC(C)=O)CN2c1ccc(C(F)(F)F)cc1 (stereo not drawn) [Cpd. No. 22, N-((6-methoxy-1-(4-(trifluoromethyl)phenyl)-1,2,3,4-tetrahydro-1,5-naphthyridin-3-yl)methyl)acetamide] | < 1 µM |
| CC(=O)NCC1Cc2nc(O)ccc2N(c2ccc(C(F)(F)F)cc2)C1 (stereo not drawn) [Cpd. No. 23, N-((6-hydroxy-1-(4-(trifluoromethyl)phenyl)-1,2,3,4-tetrahydro-1,5-naphthyridin-3-yl)methyl)acetamide] | > 10 µM |
| CC(=O)NCc1cc2c(c(-c3ccc(C(F)(F)F)cc3)c1)CNCC2 [Cpd. No. 32, N-((8-(4-(trifluoromethyl)phenyl)-1,2,3,4-tetrahydroisoquinolin-6-yl)methyl)acetamide] | > 10 µM |
| C=CC(=O)NCc1cc2c(c(-c3ccc(C(F)(F)F)cc3)c1)CNCC2 [Cpd. No. 33, N-((8-(4-(trifluoromethyl)phenyl)-1,2,3,4-tetrahydroisoquinolin-6-yl)methyl)acrylamide] | < 1 µM |

The remaining lines, values ahead:

| IC50 | Structure (SMILES) |
| --- | --- |
| > 10 µM | O=C(O)COC1Cc2ncccc2N(c2ccc(C(F)(F)F)cc2)C1 (stereo not drawn) [Cpd. No. 24, 2-((1-(4-(trifluoromethyl)phenyl)-1,2,3,4-tetrahydro-1,5-naphthyridin-3-yl)oxy)acetic acid] |
| > 10 µM | FC(F)(F)c1ccc(N2CC(CNC3COC3)Cc3ncccc32)cc1 (stereo not drawn) [Cpd. No. 25, N-((1-(4-(trifluoromethyl)phenyl)-1,2,3,4-tetrahydro-1,5-naphthyridin-3-yl)methyl)oxetan-3-amine] |
| > 10 µM | CC(=O)NCC1Cc2c(cc[nH]c2=O)N(c2ccc(C(F)(F)F)cc2)C1 (stereo not drawn) [Cpd. No. 27, N-((5-oxo-1-(4-(trifluoromethyl)phenyl)-1,2,3,4,5,6-hexahydro-1,6-naphthyridin-3-yl)methyl)acetamide] |
| > 10 µM | O=C1CC[C@@H](C(=O)NCC2Cc3ncccc3N(c3ccc(C(F)(F)F)cc3)C2)N1 (stereo partly drawn) [Cpd. No. 28, (2S)-5-oxo-N-((1-(4-(trifluoromethyl)phenyl)-1,2,3,4-tetrahydro-1,5-naphthyridin-3-yl)methyl)pyrrolidine-2-carboxamide] |
| < 1 µM | O=C1CC[C@H](C(=O)NCC2Cc3ncccc3N(c3ccc(C(F)(F)F)cc3)C2)N1 (stereo partly drawn) [Cpd. No. 29, (2R)-5-oxo-N-((1-(4-(trifluoromethyl)phenyl)-1,2,3,4-tetrahydro-1,5-naphthyridin-3-yl)methyl)pyrrolidine-2-carboxamide] |
| > 10 µM | Cn1cncc1C(=O)NCC1Cc2ncccc2N(c2ccc(C(F)(F)F)cc2)C1 (stereo not drawn) [Cpd. No. 30, 1-methyl-N-((1-(4-(trifluoromethyl)phenyl)-1,2,3,4-tetrahydro-1,5-naphthyridin-3-yl)methyl)-1H-imidazole-5-carboxamide] |
| > 10 µM | O=C1CCCN1CC1Cc2ncccc2N(c2ccc(C(F)(F)F)cc2)C1 (stereo not drawn) [Cpd. No. 31, 1-((1-(4-(trifluoromethyl)phenyl)-1,2,3,4-tetrahydro-1,5-naphthyridin-3-yl)methyl)pyrrolidin-2-one] |
| < 1 µM | [2H]C([2H])([2H])C(=O)NCC1Cc2ncccc2N(c2ccc(C(F)(F)F)cc2)C1 (stereo not drawn) [Cpd. No. 34, N-((1-(4-(trifluoromethyl)phenyl)-1,2,3,4-tetrahydro-1,5-naphthyridin-3-yl)methyl)acetamide-2,2,2-d3] |
| 1 to 10 µM | O=C(Cc1ccccc1)NCC1Cc2ncccc2N(c2ccc(C(F)(F)F)cc2)C1 (stereo not drawn) [Cpd. No. 35, 2-phenyl-N-((1-(4-(trifluoromethyl)phenyl)-1,2,3,4-tetrahydro-1,5-naphthyridin-3-yl)methyl)acetamide] |
| > 10 µM | C=CC(=O)N(CC(=O)O)Cc1cc2c(c(-c3ccc(C(F)(F)F)cc3)c1)CNCC2 [Cpd. No. 36, N-acryloyl-N-((8-(4-(trifluoromethyl)phenyl)-1,2,3,4-tetrahydroisoquinolin-6-yl)methyl)glycine] |
| > 10 µM | CC(=O)N(CC(=O)O)Cc1cc2c(c(-c3ccc(C(F)(F)F)cc3)c1)CNCC2 [Cpd. No. 37, N-acetyl-N-((8-(4-(trifluoromethyl)phenyl)-1,2,3,4-tetrahydroisoquinolin-6-yl)methyl)glycine] |
| < 1 µM | O=C(CC(F)(F)F)NCC1Cc2ncccc2N(c2ccc(C(F)(F)F)cc2)C1 (stereo not drawn) [Cpd. No. 38, 3,3,3-trifluoro-N-((1-(4-(trifluoromethyl)phenyl)-1,2,3,4-tetrahydro-1,5-naphthyridin-3-yl)methyl)propanamide] |
| < 1 µM | CC(C)C(=O)NCC1Cc2ncccc2N(c2ccc(C(F)(F)F)cc2)C1 (stereo not drawn) [Cpd. No. 39, N-((1-(4-(trifluoromethyl)phenyl)-1,2,3,4-tetrahydro-1,5-naphthyridin-3-yl)methyl)isobutyramide] |
| 1 to 10 µM | O=C(NCC1Cc2ncccc2N(c2ccc(C(F)(F)F)cc2)C1)c1ccccc1 (stereo not drawn) [Cpd. No. 40, N-((1-(4-(trifluoromethyl)phenyl)-1,2,3,4-tetrahydro-1,5-naphthyridin-3-yl)methyl)benzamide] |
| < 1 µM | C=CC(=O)N1CCN(C2Cc3ccccc3N(c3ccc(C(F)(F)F)cc3)C2)CC1 (stereo not drawn) [Cpd. No. 41, 1-(4-(1-(4-(trifluoromethyl)phenyl)-1,2,3,4-tetrahydroquinolin-3-yl)piperazin-1-yl)prop-2-en-1-one] |
| < 1 µM | CC(=O)NCC1Cc2nc(C(F)(F)F)ccc2N(c2ccc(C(F)(F)F)cc2)C1 (stereo not drawn) [Cpd. No. 42, N-((6-(trifluoromethyl)-1-(4-(trifluoromethyl)phenyl)-1,2,3,4-tetrahydro-1,5-naphthyridin-3-yl)methyl)acetamide] |
| < 1 µM | CNC(=O)NCC1Cc2ncccc2N(c2ccc(C(F)(F)F)cc2)C1 (stereo not drawn) [Cpd. No. 43, 1-methyl-3-((1-(4-(trifluoromethyl)phenyl)-1,2,3,4-tetrahydro-1,5-naphthyridin-3-yl)methyl)urea] |
| < 1 µM | CC(=O)NCC1Cc2ncc(Br)cc2N(c2ccc(C(F)(F)F)cc2)C1 (stereo not drawn) [Cpd. No. 44, N-((7-bromo-1-(4-(trifluoromethyl)phenyl)-1,2,3,4-tetrahydro-1,5-naphthyridin-3-yl)methyl)acetamide] |
